Target: T1, rat NaPi-2b (Rattus norvegicus, UniProt Q9JJ09)
T1 construct: expressed in transfected cells; host or cells: Xenopus oocytes injected with cRNA
T1 sequence (Q9JJ09 1-695): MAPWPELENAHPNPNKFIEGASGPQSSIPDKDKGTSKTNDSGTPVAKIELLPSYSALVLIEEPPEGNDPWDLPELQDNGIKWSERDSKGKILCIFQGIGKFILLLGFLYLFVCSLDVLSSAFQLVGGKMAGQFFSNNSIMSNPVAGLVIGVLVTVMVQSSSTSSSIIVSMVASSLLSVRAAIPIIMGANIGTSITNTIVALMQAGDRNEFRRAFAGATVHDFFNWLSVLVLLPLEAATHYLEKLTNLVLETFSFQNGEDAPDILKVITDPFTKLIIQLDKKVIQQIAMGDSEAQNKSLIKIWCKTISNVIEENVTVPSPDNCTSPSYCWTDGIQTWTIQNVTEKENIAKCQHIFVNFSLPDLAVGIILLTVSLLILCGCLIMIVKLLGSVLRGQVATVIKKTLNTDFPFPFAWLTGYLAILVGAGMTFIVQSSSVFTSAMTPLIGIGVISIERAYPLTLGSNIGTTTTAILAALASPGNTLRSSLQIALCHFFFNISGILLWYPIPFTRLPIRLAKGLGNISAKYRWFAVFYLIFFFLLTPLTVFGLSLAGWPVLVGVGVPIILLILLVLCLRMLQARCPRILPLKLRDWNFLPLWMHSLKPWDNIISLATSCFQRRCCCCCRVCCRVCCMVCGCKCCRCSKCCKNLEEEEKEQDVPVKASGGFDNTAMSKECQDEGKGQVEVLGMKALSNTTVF
Assay: Sodium-dependent phosphate uptake of Xenopus oocytes which expressed NaPi-2b (32P)
Assay type: cell-based
Details: Xenopus oocytes expressing rat NaPi-2b, 32P radioactive phosphorus; read-out: IC50 (phosphate uptake inhibitory activity)
Summary of the method: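 Percent inhibition at 300 μM and 100 μM comes from the same inhibition curve of 32P uptake. Assay used oocytes expressing rat NaPi-2b after 2 days of culture.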

Row | Structure (SMILES) | IC50 [µM]
1 | CCSCCNCc1ccc(C(=O)Nc2ccc(Br)cc2C(=O)N/N=C/c2ccc(C)cc2)cc1 [Compound 765, N-[4-Bromo-2-(4-methyl-benzylidene-hydrazinocarbonyl)-phenyl]-4-[(2-ethylsulfanyl-ethylamino)-methyl]-benzamide] | 6.88
2 | CCSCCNCc1ccc(C(=O)Nc2ccc(Br)cc2C(=O)N/N=C/c2cccc(F)c2)cc1 [Compound 768, N-[4-Bromo-2-(3-fluoro-benzylidene-hydrazinocarbonyl)-phenyl]-4-[(2-ethylsulfanyl-ethylamino)-methyl]-benzamide] | 10.6
3 | CCSCCNCc1ccc(C(=O)Nc2ccc(Br)cc2C(=O)N/N=C/c2ccc(Cl)c(C(F)(F)F)c2)cc1 [Compound 769, N-[4-Bromo-2-(4-chloro-3-trifluoromethyl-benzylidene-hydrazinocarbonyl)-phenyl]-4-[(2-ethylsulfanyl-ethylamino)-methyl]-benzamide] | 4.44
4 | CCSCCNCc1ccc(C(=O)Nc2ccc(Br)cc2C(=O)N/N=C/c2ccc(OC)cc2)cc1 [Compound 770, N-[4-Bromo-2-(4-methoxy-benzylidene-hydrazinocarbonyl)-phenyl]-4-[(2-ethylsulfanyl-ethylamino)-methyl]-benzamide] | 16.5

Further lines, results first:

Row | IC50 [µM] | Structure (SMILES)
5 | 4.32 | Cc1csc(NC(=O)c2cccc(CN(CCO)CCO)c2)c1C(=O)N/N=C/c1ccc(Cl)c(C(F)(F)F)c1 [Compound 790, 3-{[Bis-(2-hydroxy-ethyl)-amino]-methyl}-N-[3-(4-chloro-3-trifluoromethyl-benzylidene-hydrazinocarbonyl)-4-methyl-thiophen-2-yl]-benzamide]
6 | 1.26 | Cc1ccc(/C=N/NC(=O)c2c(NC(=O)c3cccc(CN(CC(C)O)CC(C)O)c3)sc3ccccc23)cc1C (centres unmarked) [Compound 792, 3-{[Bis-(2-hydroxy-propyl)-amino]-methyl}-N-[3-(3,4-dimethyl-benzylidene-hydrazinocarbonyl)-benzo[b]thiophen-2-yl]-benzamide]
7 | 0.35 | CC(O)CN(Cc1cccc(C(=O)Nc2sc3ccccc3c2C(=O)N/N=C/c2ccc(Cl)c(C(F)(F)F)c2)c1)CC(C)O (centres unmarked) [Compound 796, 3-{[Bis-(2-hydroxy-propyl)-amino]-methyl}-N-[3-(4-chloro-3-trifluoromethyl-benzylidene-hydrazinocarbonyl)-benzo[b]thiophen-2-yl]-benzamide]
8 | 3.39 | COc1ccc(/C=N/NC(=O)c2c(NC(=O)c3cccc(CN(CC(C)O)CC(C)O)c3)sc3ccccc23)cc1 (centres unmarked) [Compound 797, 3-{[Bis-(2-hydroxy-propyl)-amino]-methyl}-N-[3-(4-methoxy-benzylidene-hydrazinocarbonyl)-benzo[b]thiophen-2-yl]-benzamide]
9 | 3.62 | Cc1ccc(/C=N/NC(=O)c2c(NC(=O)c3cccc(CN4CCC(CO)CC4)c3)sc3ccccc23)cc1C [Compound 798, N-[3-(3,4-Dimethyl-benzylidene-hydrazinocarbonyl)-benzo[b]thiophen-2-yl]-3-(4-hydroxymethyl-piperidin-1-ylmethyl)-benzamide]

Same assay, conditions: phosphate uptake, oocytes expressing rat NaPi-2b; 300 μM, determined from inhibition curve

Row | Structure (SMILES) | inhibition at 300 µM [%]
10 | CCSCCNCc1ccc(C(=O)Nc2ccc(Br)cc2C(=O)N/N=C/c2cccc(C)c2)cc1 [Compound 766, N-[4-Bromo-2-(3-methyl-benzylidene-hydrazinocarbonyl)-phenyl]-4-[(2-ethylsulfanyl-ethylamino)-methyl]-benzamide] | 81.9
11 | CCSCCNCc1ccc(C(=O)Nc2ccc(Br)cc2C(=O)N/N=C/c2ccc(F)cc2)cc1 [Compound 767, N-[4-Bromo-2-(4-fluoro-benzylidene-hydrazinocarbonyl)-phenyl]-4-[(2-ethylsulfanyl-ethylamino)-methyl]-benzamide] | 81.8
12 | CCSCCNCc1ccc(C(=O)Nc2ccc(Br)cc2C(=O)N/N=C/c2cccc(OC)c2)cc1 [Compound 771, N-[4-Bromo-2-(3-methoxy-benzylidene-hydrazinocarbonyl)-phenyl]-4-[(2-ethylsulfanyl-ethylamino)-methyl]-benzamide] | 85.1
13 | Cc1ccc(/C=N/NC(=O)c2cc(Br)ccc2NC(=O)c2ccc(CN3CCN(c4ccccn4)CC3)cc2)cc1C [Compound 772, N-[4-Bromo-2-(3,4-dimethyl-benzylidene-hydrazinocarbonyl)-phenyl]-4-(4-pyridin-2-yl-piperazin-1-ylmethyl)-benzamide] | 67.7
14 | Cc1ccc(/C=N/NC(=O)c2cc(Br)ccc2NC(=O)c2ccc(CN3CCN(c4ccccn4)CC3)cc2)cc1 [Compound 773, N-[4-Bromo-2-(4-methyl-benzylidene-hydrazinocarbonyl)-phenyl]-4-(4-pyridin-2-yl-piperazin-1-ylmethyl)-benzamide] | 53.9
15 | O=C(Nc1ccc(Br)cc1C(=O)N/N=C/c1ccc(F)cc1)c1ccc(CN2CCN(c3ccccn3)CC2)cc1 [Compound 774, N-[4-Bromo-2-(4-fluoro-benzylidene-hydrazinocarbonyl)-phenyl]-4-(4-pyridin-2-yl-piperazin-1-ylmethyl)-benzamide] | 58.9

More lines, now with the values ahead:

Row | inhibition at 300 µM [%] | Structure (SMILES)
16 | 44.6 | O=C(Nc1ccc(Br)cc1C(=O)N/N=C/c1cccc(F)c1)c1ccc(CN2CCN(c3ccccn3)CC2)cc1 [Compound 775, N-[4-Bromo-2-(3-fluoro-benzylidene-hydrazinocarbonyl)-phenyl]-4-(4-pyridin-2-yl-piperazin-1-ylmethyl)-benzamide]
17 | 49.2 | O=C(Nc1ccc(Br)cc1C(=O)N/N=C/c1ccc(Cl)c(C(F)(F)F)c1)c1ccc(CN2CCN(c3ccccn3)CC2)cc1 [Compound 776, N-[4-Bromo-2-(4-chloro-3-trifluoromethyl-benzylidene-hydrazinocarbonyl)-phenyl]-4-(4-pyridin-2-yl-piperazin-1-ylmethyl)-benzamide]
18 | 34.2 | COc1ccc(/C=N/NC(=O)c2cc(Br)ccc2NC(=O)c2ccc(CN3CCN(c4ccccn4)CC3)cc2)cc1 [Compound 777, N-[4-Bromo-2-(4-methoxy-benzylidene-hydrazinocarbonyl)-phenyl]-4-(4-pyridin-2-yl-piperazin-1-ylmethyl)-benzamide]
19 | 39.1 | COc1cccc(/C=N/NC(=O)c2cc(Br)ccc2NC(=O)c2ccc(CN3CCN(c4ccccn4)CC3)cc2)c1 [Compound 778, N-[4-Bromo-2-(3-methoxy-benzylidene-hydrazinocarbonyl)-phenyl]-4-(4-pyridin-2-yl-piperazin-1-ylmethyl)-benzamide]
20 | 51.6 | CC(O)CN(Cc1cccc(C(=O)Nc2sccc2C(=O)N/N=C/c2ccc(Cl)c(C(F)(F)F)c2)c1)CC(C)O (centres unmarked) [Compound 779, 3-{[Bis-(2-hydroxy-propyl)-amino]-methyl}-N-[3-(4-chloro-3-trifluoromethyl-benzylidene-hydrazinocarbonyl)-thiophen-2-yl]-benzamide]
21 | 47.7 | COc1ccc(/C=N/NC(=O)c2ccsc2NC(=O)c2cccc(CN(CC(C)O)CC(C)O)c2)cc1 (centres unmarked) [Compound 780, 3-{[Bis-(2-hydroxy-propyl)-amino]-methyl}-N-[3-(4-methoxy-benzylidene-hydrazinocarbonyl)-thiophen-2-yl]-benzamide]
22 | 51.2 | Cc1ccc(/C=N/NC(=O)c2c(C)csc2NC(=O)c2cccc(CSCCS(=O)(=O)O)c2)cc1C [Compound 781, 2-{3-[3-(3,4-Dimethyl-benzylidene-hydrazinocarbonyl)-4-methyl-thiophen-2-ylcarbamoyl]-benzylsulfanyl}-ethanesulfonic acid]
23 | 86.8 | Cc1ccc(/C=N/NC(=O)c2c(C)csc2NC(=O)c2cccc(CSCCS(=O)(=O)O)c2)cc1 [Compound 782, 2-{3-[4-Methyl-3-(4-methyl-benzylidene-hydrazinocarbonyl)-thiophen-2-ylcarbamoyl]-benzylsulfanyl}-ethanesulfonic acid]
24 | 88.8 | Cc1csc(NC(=O)c2cccc(CSCCS(=O)(=O)O)c2)c1C(=O)N/N=C/c1ccc(F)cc1 [Compound 783, 2-{3-[3-(4-Fluoro-benzylidene-hydrazinocarbonyl)-4-methyl-thiophen-2-ylcarbamoyl]-benzylsulfanyl}-ethanesulfonic acid]
25 | 88.5 | Cc1csc(NC(=O)c2cccc(CSCCS(=O)(=O)O)c2)c1C(=O)N/N=C/c1ccc(Cl)c(C(F)(F)F)c1 [Compound 784, 2-{3-[3-(4-Chloro-3-trifluoromethyl-benzylidene-hydrazinocarbonyl)-4-methyl-thiophen-2-ylcarbamoyl]-benzylsulfanyl}-ethanesulfonic acid]
26 | 39.5 | COc1ccc(/C=N/NC(=O)c2c(C)csc2NC(=O)c2cccc(CSCCS(=O)(=O)O)c2)cc1 [Compound 785, 2-{3-[3-(4-Methoxy-benzylidene-hydrazinocarbonyl)-4-methyl-thiophen-2-ylcarbamoyl]-benzylsulfanyl}-ethanesulfonic acid]
